In patent US10696692B2, “Amido-benzyl sulfone and sulfoxide derivates” (Forma TM, LLC, priority 2012, dated 2020):
Read-outs that look alike come from different tables or passages of the source.

Experiments:
[1] = tested on: A2780 cells; assay: Assay 2: In-Vitro Cell Proliferation Assay (A2780 cells, SRB readout, 72 hours); type: cell-based; conditions: A2780 cells, 72 hours, SRB, read-out: Cell Proliferation (IC50);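 note: viable cells counted via sulforhodamine B staining, absorbance at 570 nm, after 72 h exposure at 37 °C, DMSO 0.1% as control, media-only background subtracted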
[2] = target: NAMPT (Homo sapiens (Human), UniProt P43490); assay: Assay 1: Biochemical Inhibition Assay (NAMPT enzymatic reaction, NMN quantified by mass spectrometry); conditions: read-out: Biochemical (IC50);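 note: recombinant His-tagged human NAMPT preincubated with compound 15 min, then reacted 30 min at rt with 1 µM NAM, 100 µM PRPP, 2.5 mM ATP, NMN product read by RapidFire MS, normalized to L-Cystathionine internal standard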
Sequence of NAMPT (P43490 whole entry): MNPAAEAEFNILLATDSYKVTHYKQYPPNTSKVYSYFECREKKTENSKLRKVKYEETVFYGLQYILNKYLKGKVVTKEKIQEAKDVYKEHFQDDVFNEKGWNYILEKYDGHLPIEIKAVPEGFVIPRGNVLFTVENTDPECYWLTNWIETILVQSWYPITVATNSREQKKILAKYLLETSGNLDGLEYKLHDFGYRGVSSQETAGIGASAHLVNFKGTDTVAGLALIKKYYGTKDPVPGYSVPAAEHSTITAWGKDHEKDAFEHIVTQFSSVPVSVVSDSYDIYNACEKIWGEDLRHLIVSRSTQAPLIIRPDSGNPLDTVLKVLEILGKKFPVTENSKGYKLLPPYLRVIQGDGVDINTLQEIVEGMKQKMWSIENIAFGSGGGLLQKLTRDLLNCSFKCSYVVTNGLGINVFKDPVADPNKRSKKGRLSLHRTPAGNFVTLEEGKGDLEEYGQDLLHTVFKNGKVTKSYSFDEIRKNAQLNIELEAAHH

| IC50 [1] | IC50 [2] | IC50 ([1]; Homo sapiens, A2780, 72 h) | SMILES |
| --- | --- | --- | --- |
| – | 29.4 nM | 7.5 nM | O=C(NCc1ccc(S(=O)(=O)N2CCN(C3COC3)CC2)cc1)c1ccc2nccn2c1 [Example 92, Imidazo[1,2-a]pyridine-6-carboxylic acid 4-(4-oxetan-3-yl-piperazine-1-sulfonyl)-benzylamide] |
| – | 22.4 nM | 13 nM | CC(=O)N1CCN(S(=O)(=O)c2ccc(CNC(=O)c3ccc4nccn4c3)cc2)CC1 [Example 93, Imidazo[1,2-a]pyridine-6-carboxylic acid 4-(4-acetyl-piperazine-1-sulfonyl)-benzylamide] |
| – | 75.9 nM | 29 nM | O=C(NCc1ccc(S(=O)(=O)N2CCN(CCO)CC2)cc1)c1ccc2nccn2c1 [Example 94, Imidazo[1,2-a]pyridine-6-carboxylic acid 4-[4-(2-hydroxy-ethyl)-piperazine-1-sulfonyl]-benzylamide] |
| – | 41 nM | 33.5 nM | N#CC1CCN(S(=O)(=O)c2ccc(CNC(=O)c3ccc4nccn4c3)cc2)CC1 [Example 95, Imidazo[1,2-a]pyridine-6-carboxylic acid 4-(4-cyano-piperidine-1-sulfonyl)-benzylamide] |
| – | 24.7 nM | 9.4 nM | O=C(NCc1ccc(S(=O)(=O)N2CCC(CO)CC2)cc1)c1ccc2nccn2c1 [Example 96, Imidazo[1,2-a]pyridine-6-carboxylic acid 4-(4-hydroxymethyl-piperidine-1-sulfonyl)-benzylamide] |
| – | 14.4 nM | 5.4 nM | O=C(NCc1ccc(S(=O)(=O)N2CCC(N3CCCC3)CC2)cc1)c1ccc2nccn2c1 [Example 97, Imidazo[1,2-a]pyridine-6-carboxylic acid 4-(4-pyrrolidin-1-yl-piperidine-1-sulfonyl)-benzylamide] |
| – | 46.1 nM | 10.1 nM | COCCN1CCN(S(=O)(=O)c2ccc(CNC(=O)c3ccc4nccn4c3)cc2)CC1 [Example 98, Imidazo[1,2-a]pyridine-6-carboxylic acid 4-[4-(2-methoxy-ethyl)-piperazine-1-sulfonyl]-benzylamide] |
| – | 15.8 nM | 7.7 nM | O=C(NCc1ccc(S(=O)(=O)N2CCC(F)(F)C2)cc1)c1ccc2nccn2c1 [Example 99, Imidazo[1,2-a]pyridine-6-carboxylic acid 4-(3,3-difluoro-pyrrolidine-1-sulfonyl)-benzylamide] |
| – | 25.7 nM | 25.4 nM | CC(=O)N1CCCN(S(=O)(=O)c2ccc(CNC(=O)c3ccc4nccn4c3)cc2)CC1 [Example 100, Imidazo[1,2-a]pyridine-6-carboxylic acid 4-(4-acetyl-[1,4]diazepane-1-suIfonyl)-benzylamide] |
| – | 29.5 nM | 39.4 nM | CC(C)(C)OC(=O)N1CCC2(CCN(S(=O)(=O)c3ccc(CNC(=O)c4ccc5nccn5c4)cc3)CC2)C1 [Example 103, 8-(4-{[(Imidazo[1,2-a]pyridine-6-carbonyl)-amino]-methyl}-benzenesulfonyl)-2,8-diaza-spiro[4.5]decane-2-carboxylic acid tert-butyl ester] |
| – | 26.9 nM | 8.8 nM | N#CCCN1CCN(S(=O)(=O)c2ccc(CNC(=O)c3ccc4nccn4c3)cc2)CC1 [Example 104, Imidazo[1,2-a]pyridine-6-carboxylic acid 4-[4-(2-cyano-ethyl)-piperazine-1-sulfonyl]-benzylamide] |
| – | 6.8 nM | 9 nM | CN(C)CCN1CCN(S(=O)(=O)c2ccc(CNC(=O)c3ccc4nccn4c3)cc2)CC1 [Example 105, Imidazo[1,2-a]pyridine-6-carboxylic acid 4-[4-(2-dimethylamino-ethyl)-piperazine-1-sulfonyl]-benzylamide] |
| – | 48.6 nM | 57.7 nM | O=C(NCc1ccc(S(=O)(=O)N2CCC[C@@H]2CO)cc1)c1ccc2nccn2c1 [Example 106, Imidazo[1,2-a]pyridine-6-carboxylic acid 4-((R)-2-hydroxymethyl-pyrrolidine-1-sulfonyl)-benzylamide] |
| – | 23.7 nM | 15.4 nM | O=C(NCc1ccc(S(=O)(=O)N2CCC[C@H]2CO)cc1)c1ccc2nccn2c1 [Example 107, Imidazo[1,2-a]pyridine-6-carboxylic acid 4-((S)-2-hydroxymethyl-pyrrolidine-1-sulfonyl)-benzylamide] |
| – | 25.6 nM | 5.3 nM | CN(C)[C@H]1CCN(S(=O)(=O)c2ccc(CNC(=O)c3ccc4nccn4c3)cc2)C1 [Example 108, Imidazo[1,2-a]pyridine-6-carboxylic acid 4-((S)-3-dimethylamino-pyrrolidine-1-sulfonyl)-benzylamide] |
| – | 2.7 nM | 3.9 nM | CN1CCN(C(=O)C2CCN(S(=O)(=O)c3ccc(CNC(=O)c4ccc5nccn5c4)cc3)CC2)CC1 [Example 109, Imidazo[1,2-a]pyridine-6-carboxylic acid 4-[4-(4-methyl-piperazine-1-carbonyl)-piperidine-1-sulfonyl]-benzylamide] |
| – | 3.1 nM | 3.3 nM | CN1CCN(C2CCN(S(=O)(=O)c3ccc(CNC(=O)c4ccc5nccn5c4)cc3)CC2)CC1 [Example 110, Imidazo[1,2-a]pyridine-6-carboxylic acid 4-[4-(4-methyl-piperazin-1-yl)-piperidine-1-sulfonyl]-benzylamide] |

The remaining lines, values behind:

| SMILES | IC50 [1] | IC50 [2] | IC50 ([1]; Homo sapiens, A2780, 72 h) |
| --- | --- | --- | --- |
| O=C(NCc1ccc(S(=O)(=O)C2CCN(CC(F)(F)F)CC2)cc1)c1cnc2nccn2c1 [Example 64, Imidazo[1,2-a]pyrimidine-6-carboxylic acid 4-[1-(2,2,2-trifluoro-ethyl)-piperidine-4-sulfonyl]-benzylamide] | 8.8 nM | 3.7 nM | – |
| O=C(NCc1ccc(S(=O)(=O)C2CCN(CC(F)(F)F)CC2)cc1)c1ccc2nccn2c1 [Example 65, Imidazo[1,2-a]pyridine-6-carboxylic acid 4-[1-(2,2,2-trifluoro-ethyl)-piperidine-4-sulfonyl]-benzylamide] | 2.1 nM | 12.4 nM | – |
| O=C(NCc1ccc(S(=O)(=O)C2CCN(CC(F)(F)F)CC2)cc1)c1cc2cnccc2[nH]1 [Example 66, 1H-Pyrrolo[3,2-c]pyridine-2-carboxylic acid 4-[1-(2,2,2-trifluoro-ethyl)-piperidine-4-sulfonyl]-benzylamide] | 3.2 nM | 15.4 nM | – |
| O=C(NCc1ccc(S(=O)(=O)C2CCN(CC(F)(F)F)CC2)cc1)c1cc2ccncc2o1 [Example 67, Furo[2,3-c]pyridine-2-carboxylic acid 4-[1-(2,2,2-trifluoro-ethyl)-piperidine-4-sulfonyl]-benzylamide] | 5.4 nM | 13.5 nM | – |
| O=C(NCc1ccc(S(=O)(=O)C2CCN(C3CCOCC3)CC2)cc1)c1ccc2nccn2c1 [Example 69, Imidazo[1,2-a]pyridine-6-carboxylic acid 4-[1-(tetrahydro-pyran-4-yl)-piperidine-4-sulfonyl]-benzylamide] | 4.7 nM | 13.6 nM | – |
| O=C(NCc1ccc(S(=O)(=O)N2C[C@@H]3CC(F)(F)C[C@@H]3C2)cc1)c1ccc2nccn2c1 [Example 70, cis-Imidazo[1,2-a]pyridine-6-carboxylic acid 4-((3aR,6aS)-5,5-difluoro-hexahydro-cyclopenta[c]pyrrole-2-sulfonyl)-benzylamide] | – | 6.4 nM | 8 nM |
| O=C(NCc1ccc(S(=O)(=O)N2CC3CCOC3C2)cc1)c1ccc2nccn2c1 (stereo not shown) [Example 72, Imidazo[1,2-a]pyridine-6-carboxylic acid 4-(hexahydro-furo[2,3-c]pyrrole-5-sulfonyl)-benzylamide] | – | 14.3 nM | 5.7 nM |
| O=C(NCc1ccc(S(=O)(=O)[C@H]2CCOC2)cc1)c1cnc2nccn2c1 [Example 76, Imidazo[1,2-a]pyrimidine-6-carboxylic acid 4-[(S)-(tetrahydro-furan-3-yl)sulfonyl]-benzylamide] | 423 nM | 9.8 nM | – |
| O=C(NCc1ccc(S(=O)(=O)C2CCN(C3CCOCC3)CC2)cc1)c1cnc2nccn2c1 [Example 78, Imidazo[1,2-a]pyrimidine-6-carboxylic acid 4-[1-(tetrahydro-pyran-4-yl)-piperidine-4-sulfonyl]-benzylamide] | 47.9 nM | 4 nM | – |
| O=C(NCc1ccc(S(=O)(=O)[C@@H]2CCOC2)cc1)c1cnc2nccn2c1 [Example 80, Imidazo[1,2-a]pyrimidine-6-carboxylic acid 4-[(R)-(tetrahydro-furan-3-yl)sulfonyl]-benzylamide] | 457 nM | 8.9 nM | – |
| O=C(NCc1ccc(S(=O)(=O)N2CCC[C@@H](O)C2)cc1)c1cc2ccncc2o1 [Example 82, Furo[2,3-c]pyridine-2-carboxylic acid 4-((R)-3-hydroxy-piperidine-1-sulfonyl)-benzylamide] | 34.8 nM | 26.1 nM | – |
| C[C@@H]1CN(S(=O)(=O)c2ccc(CNC(=O)c3ccc4nccn4c3)cc2)C[C@H](C)N1CC(F)(F)F [Example 83, Imidazo[1,2-a]pyridine-6-carboxylic acid 4-[(3R,5S)-3,5-dimethyl-4-(2,2,2-trifluoro-ethyl)-piperazine-1-sulfonyl]-benzylamide] | – | 7.7 nM | 2.6 nM |
| O=C(NCc1ccc(S(=O)(=O)N2C[C@@H]3C[C@H]2CO3)cc1)c1ccc2nccn2c1 [Example 84, Imidazo[1,2-a]pyridine-6-carboxylic acid 4-[(1S,4S)-(2-oxa-5-aza-bicyclo[2.2.1]hept-5-yl)sulfonyl]-benzylamide] | – | 37.4 nM | 16.6 nM |
| CC(=O)N1CCC(S(=O)(=O)c2ccc(CNC(=O)c3cnc4nccn4c3)cc2)CC1 [Example 86, Imidazo[1,2-a]pyrimidine-6-carboxylic acid 4-(1-acetyl-piperidine-4-sulfonyl)-benzylamide] | 527 nM | 5.1 nM | – |
| O=C(NCc1ccc(S(=O)(=O)[C@@H]2CCOC2)cc1)c1cnc2[nH]ncc2c1 [Example 90, 1H-Pyrazolo[3,4-b]pyridine-5-carboxylic acid 4-[(R)-(tetrahydro-furan-3-yl)sulfonyl]-benzylamide] | 1800 nM | 227 nM | – |
